This note sets out measurements from article PMC8655235 (Journal of Advanced Research, 2020).

This assay deals with T1, mitochondrial complex I (NADH dehydrogenase) of mites (Psoroptes ovis, UniProt A0A075XDS2).
T1 sequence (A0A075XDS2 1-300): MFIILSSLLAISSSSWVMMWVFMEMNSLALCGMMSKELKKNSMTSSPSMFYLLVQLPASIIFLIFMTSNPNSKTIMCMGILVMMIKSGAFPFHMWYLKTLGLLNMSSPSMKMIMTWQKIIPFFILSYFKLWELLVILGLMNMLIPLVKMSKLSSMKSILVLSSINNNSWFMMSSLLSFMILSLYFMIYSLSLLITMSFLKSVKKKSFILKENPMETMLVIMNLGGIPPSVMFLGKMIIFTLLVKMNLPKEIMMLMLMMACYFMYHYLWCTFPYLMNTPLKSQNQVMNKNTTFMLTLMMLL
Briefly: colorimetric complex I assay at […] nm, isolated mite mitochondria. Type of assay: biochemical. Particulars: read-out: % inhibition at 20 ng/mL.

As for `C=CCc1ccc(O)c(OC)c1` [eugenol, 4-allyl-2-methoxyphenol], the inhibition at 0.02 µg/mL came out at 92.6%.
